The values that follow are results of earlier work, collected in US11612566B2, “Lamotrigine oral liquid suspension and use thereof” (OWP Pharmaceuticals, Inc., priority 2019, dated 2023).

The conditions of this data set: BCS class II molecule; poorly soluble in water.

With `Nc1nnc(-c2cccc(Cl)c2Cl)c(N)n1` [Lamotrigine, 6-(2,3-dichlorophenyl)-1,2,4-triazine-3,5-diamine], the solubility entry was “low”.
